Test results published in patent publication US11718610B2, “Compounds containing benzosultam” (MEDSHINE DISCOVERY INC., priority 2020, dated 2023).
Like-named read-outs stand apart in the source and are kept apart here.

Legend:
[1] = Pharmacokinetics of single intravenous and oral administration in mice; assay type: in vivo; details: for Vd / clearance / half-life: single intravenous administration, 0.5 mg/kg/day; for Vd: read-out: Apparent distribution volume Vdss; for clearance: read-out: Clearance rate Cl; for half-life: read-out: Half-life (T1/2) (converted); for Tmax / Cmax: single oral administration, 50 mg/kg/day; for Tmax: read-out: Peak time Tmax; for Cmax: read-out: Maximum plasma drug concentration Cmax
Description: (§1) Experimental Embodiment 6: Pharmacokinetics Study of Single Intravenous and Oral Administration in Mice and Dogs
(§2) This experiment was aimed to study the pharmacokinetics of the test compound in mice and dogs in vivo after a single oral administration of the compound.
(§3) After intravenous or oral administration, blood samples were collected and the actual blood collection time was recorded. After the blood sample was collected, the sample was immediately transferred to a labeled centrifuge tube containing K2-EDTA, and then the plasma was taken after centrifugation. The plasma was transferred to a precooled centrifuge tube, quickly frozen in dry ice, and stored in an ultra-low temperature refrigerator at −70±10° C. until LC-MS/MS analysis.
(§4) Pharmacokinetic software was used to process the plasma drug concentration data of the compound with […] model. The peak concentration (Cmax) and peak time (Tmax), as well as the end time of quantification, were obtained directly from the plasma drug concentration-time graph. The following pharmacokinetic parameters were calculated by logarithmic linear trapezoidal method: half-life (T1/2), apparent distribution volume (Vdss) and clearance rate (Cl), and the area under the time-plasma concentration curve from 0 to the end time point (AUC0-last).

HCT116 cells = assay: HCT116 (Kras G13D) antiproliferative activity experiment (CellTiter Glo); assay type: cell-based; details: Homo sapiens, HCT-116, 72 h, cultured 3 days
Description: Experimental Embodiment 2: HCT116 (Kras^G13D) Antiproliferative Activity Experiment
(1) cell culture medium: 89% Mc′Coy 5A, 10% fetal bovine serum and 1% penicillin-streptomycin;
(2) culture medium and trypsin were preheated in a 37° C. water bath;
(3) the culture medium was removed in the cell culture flask and washed once with 1 mL of trypsin;
(4) 1 mL of trypsin was added to the cell culture flask, and the cell culture flask was shaken gently, and the trypsin was removed after full contact with the cell, and then the culture flask was placed into a 37° C. incubator containing 5% CO2 for about 1 minute;
(5) the cells were resuspended with 2 mL of cell culture medium, and about 0.01 mL of cell suspension was taken out for counting;
(§5) (6) the cell suspension was diluted with culture medium to a cell density required for plating of 2.5×10^4 cells per mL;
(7) 100 μL of culture medium was added to each well around the cell plate, and 80 μL of cell suspension was added to the other wells, and placed in a 37° C. incubator containing 5% CO2 for overnight culture.
(§6) (8) The required cell amount and culture medium were taken based on the new T75 culture flask for continued culture.
(§7) (1) the compound to be tested was prepared into […] solution with DMSO;
(2) 9 concentration gradients and 3-fold dilutions were performed on the compounds, that is, a double-duplicate experiment was set from 6 mmol to 2.7 μmol, and 78 μL of culture medium was added to the middle plate, and then 2 μL of gradient diluted compound per well was transferred to the middle plate according to the corresponding position, and after mixing, 20 μL per well was transferred to the cell plate, and the final concentration of the compound transferred to the cell plate was 30 μmol to 13.7 nmol. The cell plate was placed in a carbon dioxide incubator and cultured for another 3 days.
(1) CTG was added and the plate was read: 20 μL of CellTiter Glo was added to each well of the cell plate, and the cell plate was shaken in the dark for 10 min;
(2) plates were read on Victor Nivo.
The equation (Sample-Min)/(Max-Min)*100% was used to convert the original data into inhibition rate, and the IC50 value could be obtained by curve fitting with four parameters (obtained by “log (inhibitor) vs. response—variable slope” mode in GraphPad Prism).

Calu-6 cells = assay: Calu-6 (Kras Q61K) antiproliferative activity experiment (CellTiterGlo); assay type: cell-based, human; details: cultured three days
Description: Experimental Embodiment 1: Calu-6 (Kras^Q61K) Antiproliferative Activity Experiment
(1) cell culture medium: 88% RPMI-1640, 10% fetal bovine serum, 1% L-glutamine and 1% penicillin-streptomycin;
(2) culture medium, trypsin and DPBS were preheated in a 37° C. water bath;
(3) the original culture medium was removed in the cell culture flask and washed once with 6 mL of PBS;
(4) 3.5 mL of trypsin was added to the cell culture flask, and the cell culture flask was shaken gently, and the trypsin was removed after full contact with the cell, and then the culture flask was placed into a 37° C. incubator containing 5% CO2 for about 1 minute;
(5) the cells were resuspended with 10 mL of cell culture medium, and about 0.6 mL of cell suspension (ViCell XR) was taken out for counting;
as §5
(7) 100 μL of PBS was added to each well around the cell plate, and 40 μL of cell suspension was added to the other wells, and placed in a 37° C. incubator containing 5% CO2 for overnight culture.
as §6, §7
(2) 9 μL of the compound was taken and added to Echo shallow well plate (Labcyte, #LP-0200), and the shallow well plate was centrifuged at 1000 rpm for 10 seconds;
(3) DPBS at the periphery of the cell plate was sucked out;
(4) the compound was gradient diluted and administrated with Echo, and 10 concentration gradients of each compound were diluted, and 100 nL of the diluent was added to the 384 cell plate separately, and then the cell plate was put back to the incubator and cultured for three days;
(5) then 100 μL of DPBS was added to the periphery of the cell plate.
(1) CTG was added and the plate was read: 20 μL of CellTiterGlo was added to each well of the cell plate, and the cell plate was shaken in the dark for 10 min. and the plate was read on Envision.

[2] = Pharmacokinetics of single intravenous and oral administration in dogs; assay type: in vivo; details: dog
Description: as §1, §2, §3, §4

Row | Vd ([1]; mouse, plasma) [L/kg] | clearance ([1]; mouse, plasma) [mL/min/kg] | half-life ([1]; mouse, plasma) [min] | Tmax ([1]; mouse, plasma) [h] | Cmax [1] [µM] | IC50 (HCT116 cells) [nM] | IC50 (Calu-6 cells) [nM] | Cmax ([1]; mouse, plasma, po) [µM] | IC50 (Calu-6 cells; Homo sapiens, Calu-6, 72 h) [nM] | Apparent distribution volume ([2]; intravenous injection, 2 mg/kg/day) [L/kg] | Maximum plasma drug concentration ([2]; oral, 10 mg/kg/day) [nmol/L] | Peak time ([2]; oral, 10 mg/kg/day) [h] | clearance ([2]; plasma, intravenous injection, 2 mg/kg/day, read-out: Clearance rate) [mL/min/kg] | half-life ([2]; plasma, intravenous injection, 2 mg/kg/day, read-out: Half-life (T1/2) (converted)) [min] | bioavailability ([2]; plasma, oral 10 mg/kg/day vs intravenous 2 mg/kg/day) [%] | Compound
1 | 0.4 | 10.3 | 69.6 | 1 | 73.4 | 103 | 88.5 | – | – | – | – | – | – | – | – | COc1cc(F)cc([C@@H](CO)NC(=O)[C@@H](C)N2Cc3ccc(-c4nc(NC5CCOCC5)ncc4Cl)cc3S2(=O)=O)c1 [Compound 1]
2 | 0.297 | 7.03 | 75.6 | 1.5 | – | 105 | – | 124 | 222 | – | – | – | – | – | – | [2H]C1([2H])CC(Nc2ncc(Cl)c(-c3ccc4c(c3)S(=O)(=O)N([C@H](C)C(=O)N[C@H](CO)c3cc(F)cc(OC)c3)C4)n2)CC([2H])([2H])O1 [Compound 9]
3 | 0.422 | 13.8 | 70.2 | 0.75 | – | 123 | – | 157 | – | – | – | – | – | – | – | COc1cc(F)cc([C@@H](CO)NC(=O)[C@@H](C)N2Cc3ccc(-c4nc(N[C@H]5CCOC[C@H]5F)ncc4Cl)cc3S2(=O)=O)c1 [Compound 11]
4 | 0.656 | 19 | 131 | 1 | – | 138 | – | 156 | 300 | 0.112 | 26700 | 3.00 | 1.34 | 258 | 59.8 | COc1cc(F)cc([C@@H](CO)NC(=O)[C@@H](C)N2Cc3ccc(-c4nc(NC5CCOCC5)ncc4Br)cc3S2(=O)=O)c1 [Compound 3]
